Reference: PMC2215335 (The Journal of General Physiology, 1977)
Entries after “also recorded” stand apart in the source; their conditions may differ.

Legend:
[1] = system: residual conductance in chloride-free solution (largely attributable to K+), rat diaphragm; assay: Residual conductance in chloride-free solution; format: cell-based
[2] = system: membrane chloride conductance (GCl), rat diaphragm; assay: Inhibition of membrane chloride conductance; format: cell-based; conditions: for Relative potency: potency of 1 for a compound having a Ki of 1 x 10^-2 M; for Reduction of GCl: 10-s M (so in the source)
[3] = system: red blood cell (RBC) surface charge; assay: Electrophoretic mobility of erythrocytes; design: species or system human; conditions: concentrations 0.1 to 100 times the Ki
[4] = system: membrane anion permeability, rat diaphragm; assay: Anion permeability sequence, bi-ionic potential shift measurements; format: cell-based
[5] = system: membrane anion conductances (GCl, GBr, GNO3, GI), rat diaphragm; assay: Anion conductance sequence in rat diaphragm; format: cell-based
[6] = system: rat diaphragm fibers; assay: Resting membrane potential of diaphragm fibers; format: cell-based; conditions: fibers exposed to 2 x 10-s M 9-AC (so in the source); SD
[7] = system: membrane resistance, rat diaphragm; assay: Membrane resistance of diaphragm in vitro during perfusion and wash; format: cell-based
[8] = system: Cl- current, rat diaphragm fibers; assay: Current-voltage relationships of diaphragm fibers; format: cell-based; conditions: 2 x 10^-5 M 9-AC, 20 ms after onset of hyperpolarizing pulses, all voltage levels

## 3,~-Dichloro-2-amino BA
[1]
  Effects on residual conductances (GK): +
[2]
  Relative potency: 76

## O=C(O)c1c(Cl)c(Cl)cc(Cl)c1Cl [2,3,5,6-Tetrachloro BA]
[1]
  Effects on residual conductances (GK): +
[2]
  Relative potency: 47

## Cc1cc(C)c(C)c(C(=O)O)c1C [2,3,5,6-Tetramethyl BA]
[1]
  Effects on residual conductances (GK): 0
[2]
  Relative potency: 16.7

## Cc1c(C)c(C(=O)O)c(C)c(C)c1C(=O)O [2,3,5,6-Tetramethyl-4-COOH-BA]
[1]
  Effects on residual conductances (GK): 0
[2]
  Relative potency: < 0.1
[2]; rat diaphragm
  Effect on GCl (in words): without detectable effect on Gel

## O=C(O)c1c(Cl)ccc(Cl)c1Cl [2,3,6-Trichloro BA]
[1]
  Effects on residual conductances (GK): 0
[2]
  Relative potency: 10.5

## Cc1cc(C)c(C(=O)O)cc1C [2,4,5-Trimethyl benzoic acid]
[3]
  Red blood cell (RBC) electrophoretic mobility: No change
[4]; increasing analog concentration
  Permeability sequence inversion: same sequence inversions were observed
[1]
  Effects on residual conductances (GK): +
[2]
  Relative potency: 152

## Cc1cc(C)c(C(=O)O)c(C)c1 [2,4,6-Trimethyl BA]
[1]
  Effects on residual conductances (GK): 0
[2]
  Relative potency: 2.5

## O=C(O)COc1ccc(Cl)cc1Cl [2,4-Dichloro phenoxyacetic acid]
[2]
  Relative potency: 5.0

## Cc1ccc(C(=O)O)c(C)c1 [2,4-Dimethyl BA]
[1]
  Effects on residual conductances (GK): +
[2]
  Relative potency: 6.2

## O=C(O)c1cc(Cl)ccc1Cl [2,5-Dichloro BA]
[1]
  Effects on residual conductances (GK): 0
[2]
  Relative potency: 33.3

## Cc1ccc(C)c(C(=O)O)c1 [2,5-Dimethyl BA]
[1]
  Effects on residual conductances (GK): 0
[2]
  Relative potency: 32

## Cc1ccc(C)c(S(=O)(=O)O)c1 [2,5-Dimethyl benzene SOsH]
[1]
  Effects on residual conductances (GK): 0
[2]
  Relative potency: < 0.3

## O=C(O)c1c(Cl)cccc1Cl [2,6-Dichloro BA]
[1]
  Effects on residual conductances (GK): 0
[2]
  Relative potency: 5.0

## O=C(O)c1ccc(Cl)c(Cl)c1 [3,4-Dichloro BA]
[1]
  Effects on residual conductances (GK): 0
[2]
  Relative potency: 38

## Cc1ccc(C(=O)O)cc1C [3,4-Dimethyl BA]
[1]
  Effects on residual conductances (GK): 0
[2]
  Relative potency: 5.0

## O=C(O)c1cc(Cl)cc(Cl)c1 [3,5-Dichloro BA]
[1]
  Effects on residual conductances (GK): 0
[2]
  Relative potency: 40

## Cc1cc(C)cc(C(=O)O)c1 [3,5-Dimethyl BA]
[1]
  Effects on residual conductances (GK): 0
[2]
  Relative potency: 6.7

## Cc1cc(C(=O)O)cc(C)c1N [3,5-Dimethyl-4-amino BA]
[2]
  Relative potency: < 0.3

## Cc1cc(C(=O)O)cc(C)c1O [3,5-Dimethyl-4-hydroxy BA]
[1]
  Effects on residual conductances (GK): 0
[2]
  Relative potency: < 0.1

## Cc1cc(C(=O)O)cc(C)c1[N+](=O)[O-] [3,5-Dimethyl-4-nitro BA]
[1]
  Effects on residual conductances (GK): 0
[2]
  Relative potency: 3.6

## O=C(O)c1c(Cl)ccc(Cl)c1[N+](=O)[O-] [3,6-Dichloro-2-nitro BA]
[1]
  Effects on residual conductances (GK): 0
[2]
  Relative potency: 6.0

## O=C(O)c1cc(Cl)c(Cl)cc1C(=O)O [4,5-Dichioro-2-COOH BA]
[1]
  Effects on residual conductances (GK): 0
[2]
  Relative potency: 0.63

## O=C(O)c1c2ccccc2cc2ccccc12 [9-AC, anthracene-9-COOH]
[3]
  Red blood cell (RBC) electrophoretic mobility: No change
[5]; 8 x 10^-6 M 9-AC (table prints 8 x 10-e M)
  Anion conductance sequence: CI>I>NO3>Br
[5]; 9-AC at 5 x 10^-5 M
  Change of GI: appeared increased relative to control values
  Reduction of GCl: > 90%
[5]; 9-AC at 8 x 10^-6 M
  Change of GBr: changed little
  Change of GI: appeared to increase
  Reduction of GCl: approximately 50%
[5]; 9-AC concentrations reducing GCl by more than 90 percent
  Effect on GI at concentrations reducing GCl by >90%: slight augmentation of G(I); also recorded: slight augmentation of GI
[4]; 5 x 10^-5 M 9-AC, 30 min
  Relative permeability I- vs Cl-: more permeable to I- than to el-
[6]
  Average resting membrane potential (RMP): 68.3 ± 3.8 mV
[1]
  Effects on residual conductances (GK): 0
[2]; depolarizing pulses
  Reduction of GCl: 54%
[2]; hyperpolarizing pulses
  Reduction of GCl: 58%
[2]; 10^-5 M 9-AC, external [Ca2+] 2 mM, 10 mM and 20 mM
  Percent reduction in observed GCl at varied external Ca2+: the same
[2]
  Relative potency: 909
[7]; 10^-5 M 9-AC in Ringer's
  Time for increase in membrane resistance to reach new steady value: ≤ 10 min
[7]; methylsulfate-substituted chloride-free Ringer's, same concentration (10^-5 M)
  Membrane resistance in chloride-free Ringer's: unaffected
[7]; reperfusion with normal Ringer's after 10^-5 M 9-AC
  Time for membrane resistance to return to near control levels: 30 to 60 min
[8]
  Early I-V relationships relative to control values: about 30 % of control

## O=C(O)c1ccccc1 [Benzoic acid (BA), Benzoic acid]
[1]
  Effects on residual conductances (GK): 0

## O=C(O)c1c(Cl)c(Cl)c(Cl)c(Cl)c1Cl [Pentachloro BA]
[1]
  Effects on residual conductances (GK): +
[2]
  Relative potency: 125
